# From US20240239775A1, “FXR REGULATOR, PREPARATION METHOD THEREFOR, PHARMACEUTICAL COMPOSITION THEREOF AND USE THEREOF” (QINGDAO RUIJI MEDICAL TECHNOLOGY CO., LTD., priority 2021, published 2024)
# Biological target: T1, FXR (Homo sapiens, UniProt Q96RI1)
# T1 construct: 5 μL of 20 nM FXR-LBD Complete Coregulator buffer G; purchased ThermoFisher PV4833
# T1 sequence (Q96RI1 262-486 limits assumed): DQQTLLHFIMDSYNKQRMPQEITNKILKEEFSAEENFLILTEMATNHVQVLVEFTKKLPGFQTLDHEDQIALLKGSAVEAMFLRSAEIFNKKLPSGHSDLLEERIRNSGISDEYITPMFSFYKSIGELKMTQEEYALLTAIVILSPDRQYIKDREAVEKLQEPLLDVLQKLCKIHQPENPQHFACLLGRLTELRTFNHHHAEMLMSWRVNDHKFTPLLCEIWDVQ
# Assay: FXR antagonist screening by TR-FRET (LanthaScreen TR-FRET FXR co-activation assay kit)
# Format: biochemical
# Conditions: Table 1.1, FXR antagonistic activity; TR-FRET with CDCA; geometric means of at least two independent runs
# Summary of the method: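 FXR-LBD (20 nM working solution) mixed with compound, CDCA (200 μM working solution) as agonist, Fluorescein-SRC2-2 and Tb-anti-GST antibody in Coregulator buffer G; 10 h at room temperature. Coactivator recruitment read by TR-FRET, triplicate wells.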
row,SMILES,IC50 [µM]
1,"CCOC(=O)c1oc2ccc(S(=O)(=O)N(CCc3ccccc3)Cc3ccccc3F)cc2c1C [Example M4-14, ethyl 3-methyl-5-(N-(2-fluorobenzyl)-N-phenethylsulfamoyl)benzofuran-2-carboxylate]",50 to 100
2,"CCOC(=O)c1oc2ccc(S(=O)(=O)N(CCc3ccccc3)Cc3ccccc3Cl)cc2c1C [Example M4-15, ethyl 3-methyl-5-(N-(2-chlorobenzyl)-N-phenethylsulfamoyl)benzofuran-2-carboxylate]",50 to 100
3,"CCOC(=O)c1oc2ccc(S(=O)(=O)N(CCc3ccccc3)Cc3ccccc3Br)cc2c1C [Example M4-16, ethyl 3-methyl-5-(N-(2-bromobenzyl)-N-phenethylsulfamoyl)benzofuran-2-carboxylate]",50 to 100
4,"CCOC(=O)c1oc2ccc(S(=O)(=O)N(CCc3ccccc3)Cc3ccccc3C)cc2c1C [Example M4-17, ethyl 3-methyl-5-(N-(2-methylbenzyl)-N-phenethylsulfamoyl)benzofuran-2-carboxylate]",50 to 100
5,"CCOC(=O)c1oc2ccc(S(=O)(=O)N(CCc3ccccc3)Cc3ccccc3C(F)(F)F)cc2c1C [Example M4-18, ethyl 3-methyl-5-(N-(2-trifluoromethylbenzyl)-N-phenethylsulfamoyl)benzofuran-2-carboxylate]",50 to 100
6,"CCOC(=O)c1oc2ccc(S(=O)(=O)N(CCc3ccccc3)Cc3ccccc3[N+](=O)[O-])cc2c1C [Example M4-19, ethyl 3-methyl-5-(N-(2-nitrobenzyl)-N-phenethylsulfamoyl)benzofuran-2-carboxylate]",50 to 100
7,"CCOC(=O)c1oc2ccc(S(=O)(=O)N(CCc3ccccc3)Cc3cccc(F)c3)cc2c1C [Example M4-20, ethyl 3-methyl-5-(N-(3-fluorobenzyl)-N-phenethylsulfamoyl)benzofuran-2-carboxylate]",50 to 100
8,"CCOC(=O)c1oc2ccc(S(=O)(=O)N(CCc3ccccc3)Cc3cccc(Cl)c3)cc2c1C [Example M4-21, ethyl 3-methyl-5-(N-(3-chlorobenzyl)-N-phenethylsulfamoyl)benzofuran-2-carboxylate]",50 to 100
9,"CCOC(=O)c1oc2ccc(S(=O)(=O)N(CCc3ccccc3)Cc3cccc(Br)c3)cc2c1C [Example M4-22, ethyl 3-methyl-5-(N-(3-bromobenzyl)-N-phenethylsulfamoyl)benzofuran-2-carboxylate]",50 to 100
10,"CCOC(=O)c1oc2ccc(S(=O)(=O)N(CCc3ccccc3)Cc3cccc(C)c3)cc2c1C [Example M4-23, ethyl 3-methyl-5-(N-(3-methylbenzyl)-N-phenethylsulfamoyl)benzofuran-2-carboxylate]",50 to 100
11,"CCOC(=O)c1oc2ccc(S(=O)(=O)N(CCc3ccccc3)Cc3cccc(C(F)(F)F)c3)cc2c1C [Example M4-24, ethyl 3-methyl-5-(N-(3-trifluoromethylbenzyl)-N-phenethylsulfamoyl)benzofuran-2-carboxylate]",50 to 100
12,"CCOC(=O)c1oc2ccc(S(=O)(=O)N(CCc3ccccc3)Cc3cccc([N+](=O)[O-])c3)cc2c1C [Example M4-25, ethyl 3-methyl-5-(N-(3-nitrobenzyl)-N-phenethylsulfamoyl)benzofuran-2-carboxylate]",50 to 100
13,"CCOC(=O)c1oc2ccc(S(=O)(=O)N(CCc3ccccc3)Cc3cccc(-c4ccccc4)c3)cc2c1C [Example M4-26, ethyl 3-methyl-5-(N-([1,1′-biphenyl]-3-ylmethyl)-N-phenethylsulfamoyl)benzofuran-2-carboxylate]",50 to 100
14,CCOC(=O)c1oc2ccc(S(=O)(=O)N(CCc3ccccc3)Cc3cccc(Oc4ccccc4)c3)cc2c1C [Example M4-27],50 to 100
15,"CCOC(=O)c1oc2ccc(S(=O)(=O)N(CCc3ccccc3)Cc3ccc(F)cc3)cc2c1C [Example M4-28, ethyl 3-methyl-5-(N-(4-fluorobenzyl)-N-phenethylsulfamoyl)benzofuran-2-carboxylate]",50 to 100
16,"CCOC(=O)c1oc2ccc(S(=O)(=O)N(CCc3ccccc3)Cc3ccc(Cl)cc3)cc2c1C [Example M4-29, ethyl 3-methyl-5-(N-(4-chlorobenzyl)-N-phenethylsulfamoyl)benzofuran-2-carboxylate]",50 to 100
17,"CCOC(=O)c1oc2ccc(S(=O)(=O)N(CCc3ccccc3)Cc3ccc(Br)cc3)cc2c1C [Example M4-30, ethyl 3-methyl-5-(N-(4-bromobenzyl)-N-phenethylsulfamoyl)benzofuran-2-carboxylate]",50 to 100
18,"CCOC(=O)c1oc2ccc(S(=O)(=O)N(CCc3ccccc3)Cc3ccc(C)cc3)cc2c1C [Example M4-31, ethyl 3-methyl-5-(N-(4-methylbenzyl)-N-phenethylsulfamoyl)benzofuran-2-carboxylate]",50 to 100

# Same assay, conditions: Table 1.2, FXR antagonistic activity; TR-FRET with CDCA; geometric means of at least two independent runs
row,SMILES,IC50 [µM]
1,"Cc1c(C(=O)O)sc2ccc(S(=O)(=O)N(CCc3cccc(Cl)c3)c3ccccc3N3CCN(C(=O)c4sccc4Br)CC3)cc12 [Example F27-S172, 5-(N-(2-(4-(3-bromothiophene-2-carbonyl)piperazin-1-yl)phenyl)-N-(3-chlorophenethyl)sulfamoyl)-3-methylbenzothiophene-2-carboxylic acid]",0.1 to 10
2,"Cc1c(C(=O)O)sc2ccc(S(=O)(=O)N(CCc3ccccc3Cl)c3ccccc3N3CCN(C(=O)c4sccc4Br)CC3)cc12 [Example F27-S173, 5-(N-(2-(4-(3-bromothiophene-2-carbonyl)piperazin-1-yl)phenyl)-N-(2-chlorophenethyl)sulfamoyl)-3-methylbenzothiophene-2-carboxylic acid]",0.1 to 10
3,"COc1ccccc1CCN(c1ccccc1N1CCN(C(=O)c2sccc2Br)CC1)S(=O)(=O)c1ccc2sc(C(=O)O)c(C)c2c1 [Example F27-S174, 5-(N-(2-(4-(3-bromothiophene-2-carbonyl)piperazin-1-yl)phenyl)-N-(2-methoxyphenethyl)sulfamoyl)-3-methylbenzothiophene-2-carboxylic acid]",0.1 to 10
4,"Cc1c(C(=O)O)sc2ccc(S(=O)(=O)N(CCc3ccccc3[N+](=O)[O-])c3ccccc3N3CCN(C(=O)c4sccc4Br)CC3)cc12 [Example F27-S175, 5-(N-(2-(4-(3-bromothiophene-2-carbonyl)piperazin-1-yl)phenyl)-N-(2-nitrophenylethyl)sulfamoyl)-3-toluothiophene-2-carboxylic acid]",0.1 to 10
5,"Cc1c(C(=O)O)sc2ccc(S(=O)(=O)N(CCCc3ccccc3)c3ccccc3N3CCN(C(=O)c4sccc4Br)CC3)cc12 [Example F27-S176, 5-(N-(2-(4-(3-bromothiophene-2-carbonyl)piperazin-1-yl)phenyl)-N-(3-phenylpropyl)sulfamoyl)-3-methylbenzothiophene-2-carboxylic acid]",0.1 to 10
6,"Cc1c(C(=O)O)sc2ccc(S(=O)(=O)Nc3ccccc3N3CCN(C(=O)c4sccc4Br)CC3)cc12 [Example F27-S177, 5-(N-(2-(4-(3-bromothiophene-2-carbonyl)piperazin-1-yl)phenyl)sulfamoyl)-3-toluothiophene-2-carboxylic acid]",0.1 to 10
7,"Cc1c(C(N)=O)oc2ccc(S(=O)(=O)N(CCc3ccccc3)c3ccccc3N3CCN(C(=O)c4sccc4Br)CC3)cc12 [Example F27-S178, 5-(N-(2-(4-(3-bromothiophene-2-formyl)piperazin-1-yl)phenyl)-N-phenethylsulfamoyl)3-methylbenzofuran-2-carboxamide]",0.1 to 10
8,"Cc1c(C(=O)O)n(C)c2ccc(S(=O)(=O)N(CCc3ccccc3)c3ccccc3N3CCN(C(=O)c4sccc4Br)CC3)cc12 [Example F27-S179, 5-(N-(2-(4-(3-bromothiophene-2-carbonyl)piperazin-1-yl)phenyl)-N-phenethylsulfamoyl)-1,3-dimethyl-1H-indole-2-carboxylic acid]",0.1 to 10
9,"Cc1c(C(=O)O)sc2ccc(S(=O)(=O)N(CCC3CCCCC3)c3ccccc3N3CCN(C(=O)c4sccc4Br)CC3)cc12 [Example F27-S180, 5-(N-(2-(4-(3-bromothiophene-2-carbonyl)piperazin-1-yl)phenyl)-N-(2-cyclohexylethyl)sulfamoyl)-3-methylbenzothiophene-2-carboxylic acid]",0.1 to 10
10,"Cc1c(C(=O)O)sc2ccc(S(=O)(=O)N(Cc3ccccc3)c3ccccc3N3CCN(C(=O)c4sccc4Br)CC3)cc12 [Example F27-S181, 5-(N-benzyl-N-(2-(4-(3-bromothiophene-2-carbonyl)piperazin-1-yl)phenyl)sulfamoyl)-3-methylbenzothiophene-2-carboxylic acid]",0.1 to 10
11,"Cc1c(C(=O)O)sc2ccc(S(=O)(=O)N(C)c3ccccc3N3CCN(C(=O)c4sccc4Br)CC3)cc12 [Example F27-S182, 5-(N-(2-(4-(3-bromothiophene-2-carbonyl)piperazin-1-yl)phenyl)-N-methylsulfamoyl)-3-methylbenzothiophene-2-carboxylic acid]",0.1 to 10
12,"Cc1c(C(=O)O)sc2ccc(S(=O)(=O)N(CCc3cccs3)c3ccccc3N3CCN(C(=O)c4sccc4Br)CC3)cc12 [Example F27-S183, 5-(N-(2-(4-(3-bromothiophene-2-carbonyl)piperazin-1-yl)phenyl)-N-(2-(thiophen-2-yl)ethyl)sulfamoyl)-3-methylbenzothiophene-2-carboxylic acid]",0.1 to 10
13,"Cc1c(CO)oc2ccc(S(=O)(=O)N(CCc3ccccc3)c3ccccc3N3CCN(C(=O)c4sccc4Br)CC3)cc12 [Example F27-S184, N-(2-(4-(3-bromothiophene-2-formyl)piperazin-1-yl)phenyl)-2-hydroxymethyl-3-methyl-N-phenethylbenzofuran-5-sulfonamide]",0.1 to 10
